These results are taken from ChEMBL document CHEMBL1201862, “PubChem BioAssay data set” (2004).

Test systems include SNB-19; SK-OV-3; 786-0; COLO 205; IGROV-1; UACC-62; LOX IMVI; SK-MEL-5; MOLT-4; A549; OVCAR-3; KM12; M14; SN12C; NCI-H226; SF-539; MDA-MB-231; T47D; MCF7.
Test in all cases: DTP human tumour cell line panel, 48 h

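Five compound concentrations were applied to cells in 96-well plates for 48 hours; endpoints were derived by simple linear interpolation of the resulting dose-response curve. Here, GI50 denotes the concentration required for 50% inhibition of growth.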 Calls of active or inactive are those of the source. Cut-off read from the data, not from the text of the source: active = GI50 up to about 1.1 µM and inactive = higher.

For `Cc1cccc(C)c1N1C(=O)C(=O)C(c2nc3ccccc3s2)/C(=N\N)C1=O` (stereo not given), the GI50 (in general, the concentration at which growth is held to half of that of the control) in the assay on SNB-19 is > 100 µM (inactive); in the assay with SK-OV-3 it was > 100 µM (inactive); with 786-0, > 100 µM (inactive); with COLO 205 it was > 100 µM (inactive); in the assay with IGROV-1, > 100 µM (inactive); in the assay on UACC-62, 77.4 µM (inactive). The GI50 was > 100 µM (inactive) with LOX IMVI; > 100 µM (inactive) in the assay on SK-MEL-5; 30.3 µM (inactive) in the assay with MOLT-4; > 100 µM (inactive) with A549; > 100 µM (inactive) in the assay on OVCAR-3; 52 µM (inactive) in the assay on KM12. The GI50 is > 100 µM (inactive) in the assay on M14, 78.7 µM (inactive) in the assay on SN12C, > 100 µM (inactive) with NCI-H226 and > 100 µM (inactive) with SF-539.

For the compound `COC(=O)C(Cc1nc2ccc(Cl)cc2nc1O)/C(=N\N)C(=O)Nc1cc(C)c(Cl)cc1S(=O)(=O)O` (stereo not given), the GI50 in the assay with SNB-19, in the assay on SK-OV-3, with 786-0, with COLO 205, in the assay with IGROV-1 and in the assay on UACC-62 was > 100 µM (inactive) in each case. Also, the GI50 with LOX IMVI, in the assay on SK-MEL-5, in the assay on MOLT-4, in the assay with A549, in the assay with OVCAR-3 and with KM12 was > 100 µM (inactive) each time. The GI50 was > 100 µM (inactive) in the assay with M14, > 100 µM (inactive) in the assay with SN12C, 47.1 µM (inactive) in the assay with NCI-H226 and > 100 µM (inactive) with SF-539.

As to `COC(=O)C1=C(O)C(C(=O)OC)[C@]2(O)[C@H](C(=O)OC)[C@H]1C[C@@H](c1ccc([N+](=O)[O-])cc1)[C@H]2C(=O)OC` (stereo not given in full), the GI50 with SNB-19 is 19 µM (inactive); in the assay with SK-OV-3, 27.8 µM (inactive); with MDA-MB-231, 24.6 µM (inactive); in the assay with 786-0, 14.9 µM (inactive); in the assay with COLO 205 it was 25 µM (inactive); in the assay with IGROV-1, 12.8 µM (inactive). Also, the GI50 is 12.4 µM (inactive) in the assay on UACC-62; 13 µM (inactive) with LOX IMVI; 38.2 µM (inactive) in the assay on T47D; 15.3 µM (inactive) in the assay on SK-MEL-5; 8.09 µM (inactive) in the assay with MOLT-4; 21.3 µM (inactive) in the assay on A549. Besides, the GI50 was 25.1 µM (inactive) with OVCAR-3; 28 µM (inactive) in the assay on KM12; 15.7 µM (inactive) in the assay on M14; 18.1 µM (inactive) with SN12C; 24.9 µM (inactive) in the assay with NCI-H226; 30.5 µM (inactive) in the assay on SF-539.

Consider `COC1[C@H](NC(=O)OC(C)(C)C)C(=O)N1Cc1ccccc1` (stereo not given in full), for which the GI50 in the assay with SNB-19, in the assay with SK-OV-3, in the assay with 786-0, with COLO 205, in the assay on IGROV-1 and with UACC-62 was > 100 µM (inactive) in each case. The GI50 in the assay on LOX IMVI, in the assay on SK-MEL-5, with MOLT-4, in the assay with A549, in the assay with OVCAR-3 and in the assay with KM12 was > 100 µM (inactive) throughout. Moreover, the GI50 with M14, in the assay on SN12C, with NCI-H226 and in the assay on SF-539 was > 100 µM (inactive) in each case.

With `O=C1C/C(Br)=C\c2ccccc2-c2ccccc21`, the GI50 in the assay on SNB-19 is 6.89 µM (inactive); in the assay with SK-OV-3 it was 3.03 µM (inactive); in the assay with 786-0, 1.4 µM (inactive); with COLO 205, 3.76 µM (inactive); with IGROV-1, 3.1 µM (inactive); in the assay on UACC-62, 2.23 µM (inactive). For the same compound, the GI50 in the assay with LOX IMVI was 0.869 µM (active); with SK-MEL-5 it was 5.4 µM (inactive); with MOLT-4, 2.16 µM (inactive); in the assay on A549 it was 8.26 µM (inactive); in the assay on OVCAR-3, 2.45 µM (inactive); in the assay with KM12, 3.52 µM (inactive). For the same compound, the GI50 is 2.07 µM (inactive) in the assay with M14, 2.04 µM (inactive) in the assay with SN12C, 2.66 µM (inactive) with NCI-H226 and 2.16 µM (inactive) in the assay on SF-539.

Consider `O=C1C=C(O)C(=Cc2c(O)cc(O)cc2O)C(O)=C1`, for which the GI50 in the assay with SNB-19, in the assay with SK-OV-3, in the assay on 786-0, with COLO 205, in the assay with IGROV-1 and with UACC-62 was > 100 µM (inactive) each time. For the same compound, the GI50 in the assay on LOX IMVI, in the assay on SK-MEL-5, with MOLT-4, with A549, in the assay with OVCAR-3 and in the assay with KM12 was > 100 µM (inactive) in each case. In addition, the GI50 with M14, in the assay on SN12C, in the assay with NCI-H226 and in the assay with SF-539 was > 100 µM (inactive) each time.

On to `O=C(CCC(=O)Nc1ccc(Cl)cc1)CC(=O)c1ccc2ccccc2c1`, for which the GI50 in the assay with SNB-19 is > 100 µM (inactive); in the assay on SK-OV-3, > 100 µM (inactive); in the assay with 786-0, > 100 µM (inactive); in the assay on COLO 205, > 100 µM (inactive); with IGROV-1 it was > 100 µM (inactive); in the assay on UACC-62 it was 32.7 µM (inactive). The GI50 in the assay on LOX IMVI, in the assay with SK-MEL-5, with MOLT-4, in the assay with A549, with OVCAR-3 and with KM12 was > 100 µM (inactive) throughout. In addition, the GI50 with M14, with SN12C, in the assay on NCI-H226 and in the assay on SF-539 was > 100 µM (inactive) in each case.

For `Cc1ccc(NC(=O)C(=O)C(C2C(C)CC(=O)C2CC(=O)O)[N+](=O)[O-])cc1` (stereo not given), the GI50 with SNB-19, with SK-OV-3, with 786-0, with COLO 205, in the assay on IGROV-1 and in the assay on UACC-62 was > 100 µM (inactive) each time. Also, the GI50 in the assay on LOX IMVI, with SK-MEL-5, in the assay on MOLT-4, with A549, with OVCAR-3 and in the assay with KM12 was > 100 µM (inactive) each time. Also, the GI50 in the assay with M14, in the assay on SN12C, in the assay on NCI-H226 and in the assay with SF-539 was > 100 µM (inactive) each time.

Turning to `C1OC1CN1CCN(CC2CO2)CC1` (stereo not given), the GI50 was > 100 µM (inactive) with SNB-19; > 96.8 µM (inactive) in the assay on SK-OV-3; 35.3 µM (inactive) in the assay with 786-0; > 100 µM (inactive) in the assay with COLO 205; > 100 µM (inactive) in the assay on IGROV-1; 8.87 µM (inactive) in the assay with UACC-62. Besides, the GI50 was 44.1 µM (inactive) in the assay with LOX IMVI; > 100 µM (inactive) in the assay on SK-MEL-5; 3.28 µM (inactive) in the assay with MOLT-4; 17.5 µM (inactive) with A549; > 100 µM (inactive) in the assay on OVCAR-3; > 100 µM (inactive) in the assay with KM12. For the same compound, the GI50 in the assay with M14 is 54.6 µM (inactive); in the assay with SN12C, 32.1 µM (inactive); in the assay on NCI-H226 it was > 100 µM (inactive); in the assay on SF-539 it was 37.4 µM (inactive).

For `COc1cc2[nH]c(=O)c3cc(C)cc4c(Cl)nc(c1OC)c2c43`, the GI50 is 42 µM (inactive) with SNB-19; 37.9 µM (inactive) with SK-OV-3; 76.6 µM (inactive) in the assay with MDA-MB-231; 20 µM (inactive) with 786-0; 72.6 µM (inactive) in the assay on COLO 205; 67.8 µM (inactive) with IGROV-1. Moreover, the GI50 in the assay with UACC-62 was 28.3 µM (inactive); with LOX IMVI, 53.2 µM (inactive); in the assay with SK-MEL-5, 55.6 µM (inactive); in the assay on MOLT-4 it was 42.8 µM (inactive); with A549, 45.7 µM (inactive); with MCF7, 32.9 µM (inactive). Also, the GI50 in the assay with OVCAR-3 is > 100 µM (inactive); in the assay with KM12, 96.6 µM (inactive); with M14, > 100 µM (inactive); in the assay with NCI-H226 it was 45.7 µM (inactive); in the assay with SF-539, 29.9 µM (inactive).

For `COC(=O)c1nn(-c2ccccc2)c(=O)cc1N=[N+]=[N-]`, the GI50 was > 100 µM (inactive) in the assay on SNB-19; > 100 µM (inactive) in the assay on SK-OV-3; > 100 µM (inactive) with 786-0; 99.5 µM (inactive) with COLO 205; > 100 µM (inactive) with IGROV-1; > 100 µM (inactive) in the assay with UACC-62. The GI50 with LOX IMVI, in the assay with SK-MEL-5, in the assay on MOLT-4, in the assay with A549, in the assay with OVCAR-3 and in the assay with KM12 was > 100 µM (inactive) throughout. Besides, the GI50 with M14, in the assay with SN12C, in the assay on NCI-H226 and with SF-539 was > 100 µM (inactive) in each case.

`C#CCNC(=O)NCCCC(NC(C)=O)C(=O)NCc1ccccc1` (stereo not given): the GI50 with SNB-19, with SK-OV-3, in the assay on 786-0, in the assay on COLO 205, with IGROV-1 and in the assay on UACC-62 was > 100 µM (inactive) each time. The GI50 with LOX IMVI, in the assay with SK-MEL-5, with MOLT-4, in the assay with A549, with OVCAR-3 and in the assay with KM12 was > 100 µM (inactive) throughout. The GI50 in the assay with M14, with SN12C, in the assay on NCI-H226 and in the assay on SF-539 was > 100 µM (inactive) throughout.
